Like-named read-outs stand apart in the source and are kept apart here.
Legend:
Assay in all cases: PTP IC50 assay, pNPP or FDP as substrate
Format in all cases: biochemical
PTP PEST = target: T1, PTP PEST (Homo sapiens, UniProt Q05209); details: 25° C.
T1 construct: made in house; host or cells: E. coli BL-21 (pGEX 6P-1)
T1 sequence (Q05209 1-343 limits assumed): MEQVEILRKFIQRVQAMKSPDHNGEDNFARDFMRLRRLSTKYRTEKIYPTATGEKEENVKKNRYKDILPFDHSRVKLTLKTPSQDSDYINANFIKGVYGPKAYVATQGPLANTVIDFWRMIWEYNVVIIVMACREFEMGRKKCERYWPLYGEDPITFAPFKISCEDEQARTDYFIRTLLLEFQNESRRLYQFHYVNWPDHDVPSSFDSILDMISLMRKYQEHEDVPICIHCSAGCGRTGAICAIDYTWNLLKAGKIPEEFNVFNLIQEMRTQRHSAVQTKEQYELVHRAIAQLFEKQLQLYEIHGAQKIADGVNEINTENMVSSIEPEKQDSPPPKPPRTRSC
Experimental: (§1) The following in vitro assay procedure is preferred to determine the level of activity and effect of the different compounds of the present invention on one or more of the PTPs. Similar assays can be designed along the same lines for any PTP using techniques well known in the art.
(§2) The catalytic assays described herein are performed in a 96-well format. The general procedure begins with the determination of PTP optimal pH using a three-component buffer system that minimizes ionic strength variations across a wide range of buffer pH. Next, the Michaelis-Menten constant, or Km, is determined for each specific substrate-PTP system. This Km value is subsequently used as the substrate reaction concentration for compound screening. Finally, the test PTP is exposed to varying concentrations of compound for fifteen minutes and allowed to react with substrate for ten minutes. The results are plotted as percent inhibition versus compound concentration and the IC50 interpolated from the plot.
(§3) All assays were performed using pNPP or FDP as substrate. The optimum pH was determined for each PTP used.
(§4) PTPase activity was assayed at 25° C. in a 100-μl reaction mixture containing an appropriate concentration of pNPP or FDP as substrate. The reaction was initiated by addition of the PTP and quenched after 10 min by addition of 50 μl of IN NaOH. The non-enzymatic hydrolysis of the substrate was corrected by measuring the control without the addition of the enzyme. The amount of p-nitrophenol produced was determined from the absorbance at 410 nm. To determine the kinetic parameter, Km, the initial velocities were measured at various substrate concentrations and the data were fitted to the Michaelis equation where velocity=(Vmax*[S])/(Km+[S]), and [S]=substrate reaction concentration.
(§5) The effect of the compounds on PTP was evaluated at 25° C. using pNPP or FDP as substrate. PTP was pre-incubated for fifteen minutes with various concentrations of compound. Substrate was then added at a fixed concentration (usually equal to the Km previously calculated). After 10 minutes, NaOH was added to stop the reaction. The hydrolysis of pNPP was followed at 410 nm on the Biotek Powerwave 200 microplate scanning spectrophotometer. The percent inhibition was calculated as follows: Percent Inhibition=[(control signal−compound signal)/control signal] ×100%. The IC50 was then determined by interpolation of a percent inhibition versus compound concentration plot.
(§6) Plasmids designed for bacterial GST-PTP fusion protein expression were derived by insertion of PCR-generated human PTP fragments into pGEX vectors (Pharmacia Biotech). Several of these constructs were then used to subclone phosphatases into pFastBac-1for expression in Sf-9 insect cells. Oligonucleotides used for the initial amplification of PTP genes are shown below. The cDNAs were prepared using the Gilbo BRL superscript preamplification system on RNAs purchased from Clontech.
The PTP PEST CDNA was amplified from an HeLa cDNA library (Clonetech RNA) using the following oligonucleotides: 5′oligo: 5′-[…]-3′ (SEQ ID NO: 14) 3′oligo: 5′-[…]-3′ (SEQ ID NO: 15) It was subsequently ligated into the Eco RI/Xho I sites of pGEX 6P-1.

PTP SHP2 = target: T2, PTP SHP2 (Homo sapiens, UniProt Q06124)
T2 construct: The catalytic domain was amplified using the following oligonucleotides; made in house; host or cells: Sf-9 insect cells (pFastBac-G2T)
T2 sequence (Q06124 247-517 limits assumed): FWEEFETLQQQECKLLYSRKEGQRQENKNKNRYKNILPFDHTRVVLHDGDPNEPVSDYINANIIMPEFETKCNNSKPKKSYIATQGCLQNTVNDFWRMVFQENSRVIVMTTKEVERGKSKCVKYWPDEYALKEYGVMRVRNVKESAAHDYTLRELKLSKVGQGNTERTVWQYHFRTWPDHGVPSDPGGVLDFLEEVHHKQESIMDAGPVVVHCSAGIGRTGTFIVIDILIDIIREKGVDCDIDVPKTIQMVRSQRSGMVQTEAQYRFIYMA
Experimental: as §1, §2, §3, §4, §5, §6
SHP-2 cDNA was used as described earlier (Vogel W., et al.,1993, Science, 259:1611-4). The catalytic domain was amplified using the following oligonucleotides 5′oligo: 5′-[…]-3′ (SEQ ID NO: 2) 3′oligo: 5′-[…]-3′ (SEQ ID NO: 3) and subsequently subcloned into BamH1-Xba-1 sites. It was then ligated into pfas Bac-G2T BamH1-Xba-1 sites.

PTP DEP1 = target: T3, PTP DEP1 (Homo sapiens, UniProt Q12913); details: 25° C.
T3 construct: GST-fusion proteins encompassing the entire cytoplasmic domain was done by PCR; made in house; host or cells: E. coli BL-21 (pGEX 2T)
T3 sequence (Q12913 997-1337 limits assumed): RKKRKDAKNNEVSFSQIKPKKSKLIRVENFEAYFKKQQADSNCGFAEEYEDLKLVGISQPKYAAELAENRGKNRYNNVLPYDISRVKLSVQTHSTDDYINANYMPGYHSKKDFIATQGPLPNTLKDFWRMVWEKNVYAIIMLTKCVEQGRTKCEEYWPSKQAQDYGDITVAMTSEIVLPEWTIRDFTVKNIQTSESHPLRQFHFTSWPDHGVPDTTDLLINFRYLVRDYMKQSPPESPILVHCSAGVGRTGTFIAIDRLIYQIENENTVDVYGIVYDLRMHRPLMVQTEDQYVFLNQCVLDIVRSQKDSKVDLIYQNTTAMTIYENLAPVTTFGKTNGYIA
Experimental: as §1, §2, §3, §4, §5, §6
The full length DEP1 cDNA was isolated from a human mammary cDNA library (Clontech). The construction of GST-fusion proteins encompassing the entire cytoplasmic domain was done by PCR using the following oligos; 5′oligo: 5′-[…]-3′ (SEQ ID NO: 20) 3′oligo: 5′-[…]-3′ (SEQ ID NO: 21) It was subsequently ligated into the Eco RI/Bam H1 sites of pGEX 2T.

PTP ZETA = target: T4, PTP ZETA (Homo sapiens, UniProt P23471); details: 25° C.
T4 construct: made in house; host or cells: E. coli BL-21 (pGEX 6P-1)
Experimental: as §1, §2, §3, §4, §5, §6
The PTP Zeta cDNA was amplified from human placenta single strand cDNA (Clontech RNA) using the following oligonucleotides 5′oligo: 5′-[…]-3′ (SEQ ID NO: 10) 3′oligo: 5′-[…]-3′ (SEQ ID NO: 11) and subsequently ligated into pGEX 6P-1 Eco RI/Xho I sites.

[1] = pNPP or FDP as substrate, 25° C., read-out: PTP IC50 SHP2
[2] = comparison of R groups, read-out: IC50 SHP2

T4 sequence (P23471 1667-2028 limits assumed): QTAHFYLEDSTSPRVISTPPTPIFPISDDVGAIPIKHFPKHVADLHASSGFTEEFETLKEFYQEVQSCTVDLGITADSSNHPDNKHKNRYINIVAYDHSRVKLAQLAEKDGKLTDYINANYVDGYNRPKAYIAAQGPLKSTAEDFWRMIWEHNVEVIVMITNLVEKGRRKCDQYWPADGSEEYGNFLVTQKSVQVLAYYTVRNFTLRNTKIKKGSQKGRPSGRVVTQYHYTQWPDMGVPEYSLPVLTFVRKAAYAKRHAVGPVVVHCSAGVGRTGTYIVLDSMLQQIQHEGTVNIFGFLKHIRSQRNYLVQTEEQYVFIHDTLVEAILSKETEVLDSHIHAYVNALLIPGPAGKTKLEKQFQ

O=S(=O)(c1ccc(COCc2ccc(S(=O)(=O)C(F)(F)F)cc2)cc1)C(F)(F)F [Example 1, Bis (4-trifluoromethylsulfonylbenzyl) ether]
IC50 (PTP PEST): > 100 µM | IC50 (PTP SHP2; [1]): 2 µM | IC50 (PTP DEP1): 24.2 µM | IC50 (PTP ZETA): > 100 µM

O=S(=O)(c1ccc(COc2ccc(S(=O)(=O)C(F)(F)F)cc2)cc1)C(F)(F)F [Example 2, 4-Trifluoromethylsulfonylbenzyl 4-trifluoromethylsulfonylphenyl ether]
IC50 (PTP PEST): 25.6 µM | IC50 (PTP SHP2; [1]): 42.6 µM | IC50 (PTP DEP1): 16.5 µM | IC50 (PTP ZETA): > 100 µM

O=C(c1ccccc1)N(Cc1ccc(S(=O)(=O)C(F)(F)F)cc1)Cc1ccc(S(=O)(=O)C(F)(F)F)cc1 [Example 3, N,N-Bis(4-trifluoromethylsulfonylbenzyl)benzamide]
IC50 (PTP PEST): > 100 µM | IC50 (PTP SHP2; [1]): 74.5 µM | IC50 (PTP DEP1): 40.9 µM | IC50 (PTP ZETA): > 100 µM

O=S(=O)(c1ccc(CCc2ccc(S(=O)(=O)C(F)(F)F)cc2)cc1)C(F)(F)F [Example 4, 1,2-Bis(4-trifluoromethylsulfonylphenyl)ethane]
IC50 (PTP PEST): > 100 µM | IC50 (PTP SHP2; [1]): > 100 µM | IC50 (PTP DEP1): 26.1 µM | IC50 (PTP ZETA): > 100 µM

O=C(NCc1ccc(S(=O)(=O)C(F)(F)F)cc1)c1ccc(S(=O)(=O)C(F)(F)F)cc1 [Example 5, N-(4-Trifluoromethylsulfonylbenzyl)-4-trifluoromethylsulfonylbenzamide]
IC50 (PTP PEST): > 100 µM | IC50 (PTP SHP2; [1]): > 100 µM | IC50 (PTP DEP1): > 100 µM | IC50 (PTP ZETA): > 100 µM

O=C(NCc1ccc(S(=O)(=O)C(F)(F)F)cc1)c1ccccc1 [Example 6, N-(4-Trifluoromethylsulfonylbenzyl)benzamide]
IC50 (PTP PEST): > 100 µM | IC50 (PTP SHP2; [1]): > 100 µM | IC50 (PTP DEP1): > 100 µM | IC50 (PTP ZETA): > 100 µM

O=S(=O)(Nc1ccc(CCc2ccc(NS(=O)(=O)C(F)(F)F)cc2)cc1)C(F)(F)F [Example 66, 1,2-Bis(4-trifluoromethylsulfonamidophenyl)ethane]
IC50 (PTP PEST): 13.3 µM | IC50 (PTP SHP2; [1]): 36.6 µM | IC50 (PTP DEP1): > 100 µM | IC50 (PTP ZETA): > 100 µM

Cc1cc(NS(=O)(=O)C(F)(F)F)ccc1CCc1ccc(NS(=O)(=O)C(F)(F)F)cc1C [Example 67, 1,2-Bis(2-methyl-4-trifluoromethylsulfonamidophenyl)ethane]
IC50 (PTP PEST): 10.5 µM | IC50 (PTP SHP2; [1]): 17 µM | IC50 (PTP DEP1): 85.6 µM | IC50 (PTP ZETA): > 100 µM

CC(C)(COc1ccc(NS(=O)(=O)C(F)(F)F)cc1)COc1ccc(NS(=O)(=O)C(F)(F)F)cc1 [Example 68, 1,3-Bis(4-trifluoromethylsulfonamidophenoxy)-2,2-dimethylpropane]
IC50 (PTP PEST): 9.33 µM | IC50 (PTP SHP2; [1]): 6.2 µM | IC50 (PTP DEP1): 25 µM | IC50 (PTP ZETA): > 100 µM

O=S(=O)(Nc1ccc(OCCCOc2ccc(NS(=O)(=O)C(F)(F)F)cc2)cc1)C(F)(F)F [Example 69, 1,3-Bis(4-trifluoromethylsulfonamidophenoxy)propane]
IC50 (PTP PEST): 7.86 µM | IC50 (PTP SHP2; [1]): 20.3 µM | IC50 (PTP DEP1): > 100 µM | IC50 (PTP ZETA): > 100 µM

O=S(=O)(Nc1ccc(OCCCCOc2ccc(NS(=O)(=O)C(F)(F)F)cc2)cc1)C(F)(F)F [Example 70, 1,4-Bis(4-trifluoromethylsulfonamidophenoxy)butane]
IC50 (PTP PEST): 6.75 µM | IC50 (PTP SHP2; [1]): 17.1 µM | IC50 (PTP DEP1): 24.5 µM | IC50 (PTP ZETA): > 100 µM

O=S(=O)(Nc1ccc(Oc2ccc(Oc3ccc(NS(=O)(=O)C(F)(F)F)cc3)cc2)cc1)C(F)(F)F [Example 71, 1,4-Bis(4-trifluoromethylsulfonamidophenoxy)benzene]
IC50 (PTP PEST): 0.98 µM | IC50 (PTP SHP2; [2]): 3.4 µM | IC50 (PTP SHP2; [1]): 3.4 µM | IC50 (PTP DEP1): 49 µM | IC50 (PTP ZETA): 64.3 µM

O=S(=O)(Nc1ccc(Oc2cccc(Oc3ccc(NS(=O)(=O)C(F)(F)F)cc3)c2)cc1)C(F)(F)F [Example 74, 1,3-Bis(4-trifluoromethylsulfonamidophenoxy)benzene]
IC50 (PTP SHP2; [1]): 2.8 µM

O=S(=O)(Nc1ccc(-c2nnc(-c3ccc(NS(=O)(=O)C(F)(F)F)cc3)o2)cc1)C(F)(F)F [Example 75, 2,5-Bis(4-trifluoromethylsulfonamidophenyl)-(1,3,4)oxadiazole]
IC50 (PTP SHP2; [1]): 8 µM

CC(C)(c1ccc(NS(=O)(=O)C(F)(F)F)cc1)c1ccc(C(C)(C)c2ccc(NS(=O)(=O)C(F)(F)F)cc2)cc1 [Example 76]
IC50 (PTP SHP2; [1]): 1.8 µM

Nc1ccc(Oc2ccc(Oc3ccc(N)cc3)cc2)cc1 [NH2]
IC50 (PTP SHP2; [2]): > 100 µM
